From US9586999B2, “Methods and compositions related to improving properties of pharmacological agents targeting nervous system” (University of Utah Research Foundation, priority 2006, dated 2017)
“Also recorded” adds a separate entry of the source.

Columns and labels:
sound-induced seizures = experiment: Frings audiogenic seizure-susceptible mouse model of reflex epilepsy; format: in vivo; settings: i.p., 4 mg/kg for time course, dose-response 1 h after dosing
Source text: (§1) The ability of individual modified peptides to prevent seizures induced by sound in the AGS-susceptible Frings mouse model can be assessed at the time of peak effect (White et al., 1992). For this test, individual mice are placed into a plexiglass cylinder (diameter, 15 cm; height, 18 cm) fitted with an audio transducer (Model AS-ZC; FET Research and Development, Salt Lake City, Utah), and exposed to a sound stimulus of 110 decibels (11 KHz) delivered for 20 seconds. Sound-induced seizures are characterized by wild running followed by loss of righting reflex with forelimb and hindlimb tonic extension. Mice not displaying hindlimb tonic extension are considered protected.
The two modified galanin analogs (GAL-BBB1 and GAL-BBB2) were administered i.p. to a group of Frings audiogenic seizure susceptible mice in a dose of 4 mg/kg. At various times after administration (i.e., 15, 30, 60, 120, and 240 min) each mouse was placed into a cylindrical test chamber fitted with an audio transducer and challenged with a high-intensity sound stimulus (110 dB, 11 KHz for 20 sec). Animals not displaying tonic hind-limb extension were considered protected. […] In a subsequent study, anticonvulsant efficacy was quantitated at the time to peak effect (i.e., 1 h) in a dose-response study.
as §1, with “analogs” for “peptides”
At various times after administration (i.e., 15, 30, 60, 120, and 240 min) each mouse was placed into a cylindrical test chamber fitted with an audio transducer and challenged with a high-intensity sound stimulus (110 dB, 11 KHz for 20 sec).

[1] = system: formalin-induced paw licking; experiment: Mouse formalin test of inflammatory pain; format: in vivo
Description: An injection of 0.5% formalin is made into the planter region of a mouse right hind paw. This elicits a distinct biphasic behavioral profile characterized by the mouse licking the affected paw. Immediately following the injection the mouse licks the paw for about 10 minutes. This is phase 1 (acute) and is followed by a brief latent period where there is little behavioral activity. A more prolonged period of about 20 to 30 minutes of paw licking ensues which constitutes phase 2 (inflammatory).
Prior to the administration of the active peptide, drug or vehicle each mouse undergoes a 15-minute conditioning period in one of several 6″ tall plexiglass observation tubes (4″ diameter) that are placed in front of a mirror. […] One hour after treatment, formalin was injected sub-dermally (20 μl; 27 gauge needle) into the plantar surface of the right hind foot. The bevel of the needle is placed facing down toward the skin surface. Following the injection of the formalin each animal is observed for first 2 minutes of each 5 minute epoch for a total of 45 minutes. The cumulative length of licking for each 2 minute time period was measured. An animal receiving the requisite volume of vehicle was alternated with each mouse given GAL-BBB2, Gal 1-16, or gabapentin. Animals were euthanized following the conclusion of the experiment.
Area under the curve (AUC) determination was made using the GraphPad Prism Version 3.03. Total AUC is calculated for both the test and control groups for both the acute and inflammatory phases. The AUC for individual animals for each phase is also calculated and converted to percentage of total AUC of control. The average percentages and SEM for both the drug treated and control were calculated and tested for significant difference.

## Sar-Trp-Thr-Leu-Asn-Ser-Ala-Gly-Tyr-Leu-Leu-Gly-Pro-Lys-Lys-(Lys-palm)-Lys-NH2 [NAX 5055]
sound-induced seizures; 4 mg/kg
  anticonvulsant effect against sound-induced seizures: effective; also recorded: time-dependent anticonvulsant activity; also recorded: dose-dependent protection
sound-induced seizures; listed as GAL-BBB2, 4 mg/kg
  anticonvulsant effect against sound-induced seizures: dose-dependent effect
sound-induced seizures; listed as Gal BBB-2, 4 mg/kg
  anticonvulsant effect against sound-induced seizures: time (inset) and dose-dependent protection
[1]; 5 mg/kg
  effect compared with gabapentin: equivalent to a 10 mg/kg dose of gabapentin
[1]; 0.52-5 mg/kg i.p., 1 h before formalin
  paw licking, acute and inflammatory phase: dose-dependent reduction in paw licking
[1]; mouse formalin assay
  phase II response at the active dose: (“flat phase II”)
[1]; mouse formalin assay of inflammatory pain
  Active at: 5 mg/kg
[1]; mouse, in vivo
  potency in mouse formalin assay: potent
